# Several values for one entry are separate records, joined by “and”; a condition that tells them apart may be missing. Equal values may be shown once.
# How the values were obtained:
# [1] = test system: methicillin-resistant Staphylococcus aureus wound infection; set-up: method as in PMID 32079232; settings: MRSA wound infection mouse model; cited from earlier work
# [2] = test system: LPS-induced acute lung injury; settings: cited from earlier work
# [3] = test system: IL-8–activated human neutrophils; assay: Chemotaxis of IL-8–activated human neutrophils (transwell, CellTiter Glo); type: cell-based; settings: for Neutrophilic chemotaxis, RLU, Mean / Neutrophilic chemotaxis: % reduction / Neutrophilic chemotaxis, RLU, single replicates: IL-8; for Neutrophilic chemotaxis, RLU, single replicates: listed as Ref
# Excerpt: Buffy coat (blood sample fraction comprising white blood cells and platelets) from whole blood was obtained from a healthy adult volunteer at the Croatian Institute of Transfusion Medicine (CITM; Zagreb, Croatia). The CITM ethics committee approved the blood collection process, and the volunteer provided written informed consent prior to blood collection. Neutrophils were isolated from the buffy coat, an aliquot of which was used for cell counting via hematologic analyzer (X500i; Sysmex). […] The diluted buffy coat was drawn into sterile 50-mL syringes and incubated for 30 minutes at RT. Following incubation, the upper layer of leukocyte-rich plasma (35 mL) was decanted into a new sterile 50-mL conical centrifuge tube, carefully layered onto 15 mL of Lymphoprep (Axis-Shield Diagnostics, Ltd., Dundee, UK) and centrifuged at 400×g (brake turned off) for 35 minutes at RT. The supernatant and mononuclear ring were discarded, and the pellet was resuspended in 10 mL of cold sterile MilliQ water. […] Resuspended neutrophils were counted via Sysmex X500i hematologic analyzer.
# All test compounds were reconstituted in DMSO (Sigma-Aldrich Chemie GmbH) to 100-mM stock concentrations, taking into consideration and correcting for salt and purity. A 30-mM stock solution of reference compound Sch527123 (MedChemExpress, Monmouth Junction, NJ, USA) was diluted to 10 mM with DMSO.
# DMSO was used as vehicle. […] The reference compound was tested at concentrations of 0.003, 0.01, 0.03, 0.1, 0.3, 1, 3, and 10 μM. All compounds were tested in triplicate, and the final DMSO concentration was 0.1% per well.
# Test and reference compound working solutions were then added (20 μL/well) for a 10-fold dilution to final testing concentrations. Compounds and cells were mixed by gentle pipetting, and the plate was pre-incubated for 30 minutes at RT with gentle mixing by pipetting.
# Negative control wells received 180 μL of migration medium alone. To all wells, 20 μL of compound working solutions or DMSO vehicle was added. Once pre-incubation of cells with compounds was complete, the transwell inserts were carefully placed on the receiver plate, with caution to avoid air bubble formation, which could prevent cell migration. To the upper wells, 75 μL of cell suspension (375,000 cells/well) was added, taking care not to tear the membrane with pipette tips.
# After incubation, the number of cells that migrated to the lower wells was quantified by removing the Transwell insert and adding 200 μL of CellTiter Glo reagent (CellTiter-Glo Luminescent Cell Viability Assay, Promega, Madison, WI, USA) to each lower well to quantify the amount of adenosine triphosphate (ATP) present, signaling the presence of metabolically active cells. The plate was incubated for 10 minutes in the dark at RT, followed by transferring 150 μL of solution into wells of a white 96-well plate (Lumitrac 200; Greiner Bio-One International GmbH, Kremsmunster, Austria).
# For the chemotaxis and cytotoxicity evaluations, average relative light unit values were calculated from all untreated vehicle samples and, for each sample, percentage of vehicle value was calculated. The tested compound was considered cytotoxic if reduction from untreated vehicle was ≥20%.
# [4] = test system: murine RAW 264.7 macrophages; settings: cited from earlier work
smiles,measurement,setting,value
"C=C[C@]1(C)C[C@@H](OC(=O)CSc2ccccc2N)[C@]2(C)[C@H](C)CC[C@]3(CCC(=O)[C@H]32)[C@@H](C)[C@@H]1O [amphenmulin, 22-(2-amino-phenylsulfanyl)-22-deoxypleuromutilin]","TNF-α, IL-6, and CCL-2 serum levels",[1],significantly reduced
CC[C@H]1OC(=O)[C@H](C)[C@@H](O[C@H]2C[C@@](C)(OC)[C@@H](O)[C@H](C)O2)[C@H](C)[C@@H](O[C@@H]2O[C@H](C)C[C@H](N(C)C)[C@H]2O)[C@](C)(OC)C[C@@H](C)C(=O)[C@H](C)[C@@H](O)[C@]1(C)O [clarithromycin],neutrophil recruitment,[2]; pretreatment in LPS-induced acute lung injury models,significantly reduced
CC[C@@H](Nc1c(Nc2cccc(C(=O)N(C)C)c2O)c(=O)c1=O)c1ccc(C)o1 [Sch527123],IL-8–induced chemotaxis of human neutrophils,[3]; 0.003 to 10 μM,dose-dependent inhibition
same,"Neutrophilic chemotaxis, RLU, Mean",[3]; 0.003 µM,136013 RLU
same,Neutrophilic chemotaxis: % reduction,[3]; 0.003 µM,-2.55%
same,"Neutrophilic chemotaxis, RLU, single replicates",[3]; 0.003 µM,126680 RLU and 141280 RLU and 140080 RLU
same,"Neutrophilic chemotaxis, RLU, Mean",[3]; 0.01 µM,145907 RLU
same,Neutrophilic chemotaxis: % reduction,[3]; 0.01 µM,-11%
same,"Neutrophilic chemotaxis, RLU, single replicates",[3]; 0.01 µM,164560 RLU and 147560 RLU and 125600 RLU
same,"Neutrophilic chemotaxis, RLU, Mean",[3]; 0.03 µM,131720 RLU
same,Neutrophilic chemotaxis: % reduction,[3]; 0.03 µM,1.09%
same,"Neutrophilic chemotaxis, RLU, single replicates",[3]; 0.03 µM,131800 RLU and 131640 RLU
same,"Neutrophilic chemotaxis, RLU, Mean",[3]; 0.1 µM,87493 RLU
same,Neutrophilic chemotaxis: % reduction,[3]; 0.1 µM,39%
same,"Neutrophilic chemotaxis, RLU, single replicates",[3]; 0.1 µM,83280 RLU and 83800 RLU and 95400 RLU
same,"Neutrophilic chemotaxis, RLU, Mean",[3]; 0.3 µM,34307 RLU
same,Neutrophilic chemotaxis: % reduction,[3]; 0.3 µM,84%
same,"Neutrophilic chemotaxis, RLU, single replicates",[3]; 0.3 µM,34560 RLU and 36480 RLU and 31880 RLU
same,"Neutrophilic chemotaxis, RLU, Mean",[3]; 1 µM,20080 RLU
same,Neutrophilic chemotaxis: % reduction,[3]; 1 µM,96%
same,"Neutrophilic chemotaxis, RLU, single replicates",[3]; 1 µM,21040 RLU and 22120 RLU and 17080 RLU
same,"Neutrophilic chemotaxis, RLU, Mean",[3]; 3 µM,18067 RLU
same,Neutrophilic chemotaxis: % reduction,[3]; 3 µM,97%
same,"Neutrophilic chemotaxis, RLU, single replicates",[3]; 3 µM,19800 RLU and 19160 RLU and 15240 RLU
same,"Neutrophilic chemotaxis, RLU, Mean",[3]; 10 µM,19573 RLU
same,Neutrophilic chemotaxis: % reduction,[3]; 10 µM,96%
same,"Neutrophilic chemotaxis, RLU, single replicates",[3]; 10 µM,21800 RLU and 20760 RLU and 16160 RLU
C=C[C@]1(C)C[C@@H](OC(=O)CSC(C)(C)CNC(=O)[C@H](N)C(C)C)[C@]2(C)[C@H](C)CC[C@]3(CCC(=O)[C@H]32)[C@@H](C)[C@@H]1O [valnemulin],"LPS-induced pulmonary edema, accumulation of inflammatory cells in BALF, and increased inflammatory cytokines (eg, TNF-α and IL-6)",[2]; pretreated mice vs no-treatment control group,significantly attenuated
same,"LPS-induced production of inflammatory mediators, including nitric oxide, prostaglandin E2, TNF-α, and IL-6",[4],significantly inhibited
